The target in assay [1] is T1, c-Kit(V654A) (Homo sapiens, UniProt P10721, V654A).
T1 construct: amino acids 544-end; GST (N)
The assay can be described thus: c-Kit(V654A) kinase assay (33P-ATP filter binding). The class given is biochemical. Particulars: Table 2, isoxazole vs corresponding triazole derivatives; 200 μM ATP, 40 minutes; read-out: Inhibition (IC50) of c-Kit (V654A). Here is the method:
• HPLC/MS: Agilent 1200/6100 • eluent A: water+0.05% formic acid • eluent B: acetonitrile+0.04% formic acid • column: Chromolith HR RP-18e; 50-4.6 mm • flow rate: 3.3 ml/min • gradient: 0%→100% B: 0.0→2.0 min 100% B: 2.0→2.5 min • UV detection: 220 nm • MS detection: 65-800 amu positive HPLC/MS Conditions B: • HPLC/MS: Agilent 1200/6100 • eluent A: water+0.05% formic acid • eluent B: acetonitrile+0.04% formic acid • column: Kinetex XB-C18; 2.6 μm; 50-4.6 mm • flow rate: 2.5 ml/min • gradient: 0%→100% B: 0.0→1.4 min 100% B: 1.4→2.0 min • UV detection: 220 nm • MS detection: 65-800 amu positive UPLC/MS Conditions: • UPLC/MS: Waters Acquity/SQD • eluent A: water+0.05% formic acid • eluent B: acetonitrile+0.04% formic acid • column: Kinetex XB-C18; 1.7 μm; 50-2.1 mm • flow rate: 0.9 ml/min • gradient: 2%→100% B: 0.0→1.0 min 100% B: 1.0→1.3 min • UV detection: 220 nm/254 nm/MaxPlot/TotalPlot • MS detection: 61-800 amu positive Assays c-Kit(V654A) Assay:
c-Kit(V654A) (N-terminal GST-tagged, recombinant human c-Kit, amino acids 544-end containing the V654A mutation) is incubated with 8 mM MOPS pH 7.0, 0.2 mM EDTA, 250 μM GGMEDIYEFMGGKKK, 10 mM MgAcetate and [gamma-33P-ATP] (specific activity approx. 500 cpm/pmol, concentration 200 μM). The reaction is initiated by the addition of the MgATP mix. […]

Assay [2] addresses T2, mutant cKIT (Δ560-576 and V654A) in GIST430/654 cell line (Homo sapiens, UniProt P10721, DEL560-576/V654A).
T2 construct: GIST430/654 cell line expressing mutated constitutively active cKIT receptor tyrosine kinase; endogenous in cells; host or cells: GIST430/654
The assay can be described thus: cellular testing of cKIT mutant inhibitors: cKIT autophosphorylation in GIST430/654 cells (Luminex). The class given is cell-based. Particulars: Table 2, isoxazole vs corresponding triazole derivatives; phospho-Y307-cKIT, 45 min; read-out: Inhibition (IC50) of GIST 430/654. The method, then: Assay Principle for Cellular Testing of cKIT Mutant Inhibitors
The GIST430/654 cell line expressing mutated constitutively active cKIT receptor tyrosine kinase (Δ560-576 and V654A) was employed for assessing cellular potency of compounds. Cellular activity of mutant cKIT was determined by the degree of cKIT autophosphorylation at tyrosine 307 using a Luminex-based bead assay. GIST430/654 cells were plated with 25,000 cells per well of a 96-well plate in 100 μl medium (85% IMDM/15% FCS supplemented with 100 nM Imatinib). At the following day compounds were added in a serial dilution for 45 min. Then, cells were lysed with 90 μl lysis buffer (20 mM Hepes pH 7.5, 200 mM NaCl, 1.5 mM MgCl2×6H2O, 0.4 mM EDTA, 1% Triton-X-100, 1% Phosphatase-Inhibitor II, 20 mM β-Glycerolphosphat, 0.1% Protease-Inhibitor Cocktail III, 0.01% Benzonase) und lysates were cleared by centrifugation through a 96-well filter plate (0.65 μm). Samples were incubated with Luminex-beads which were coupled with an anti-total cKIT antibody overnight at 4° C. under gentle agitation. […] The amount of phospho-Y307-cKIT was determined in a Luminex 200 instrument measuring 100 events per well within 60 seconds.
Counts from samples treated with compounds were calculated as percent of control from solvent treated (0.3% DMSO) samples. Dose-response curves were fitted and IC50 values were determined using Genedata Screener software.

Structures are written as SMILES.

T2 sequence (P10721 with tags, fused parts or gaps DEL560-576/V654A): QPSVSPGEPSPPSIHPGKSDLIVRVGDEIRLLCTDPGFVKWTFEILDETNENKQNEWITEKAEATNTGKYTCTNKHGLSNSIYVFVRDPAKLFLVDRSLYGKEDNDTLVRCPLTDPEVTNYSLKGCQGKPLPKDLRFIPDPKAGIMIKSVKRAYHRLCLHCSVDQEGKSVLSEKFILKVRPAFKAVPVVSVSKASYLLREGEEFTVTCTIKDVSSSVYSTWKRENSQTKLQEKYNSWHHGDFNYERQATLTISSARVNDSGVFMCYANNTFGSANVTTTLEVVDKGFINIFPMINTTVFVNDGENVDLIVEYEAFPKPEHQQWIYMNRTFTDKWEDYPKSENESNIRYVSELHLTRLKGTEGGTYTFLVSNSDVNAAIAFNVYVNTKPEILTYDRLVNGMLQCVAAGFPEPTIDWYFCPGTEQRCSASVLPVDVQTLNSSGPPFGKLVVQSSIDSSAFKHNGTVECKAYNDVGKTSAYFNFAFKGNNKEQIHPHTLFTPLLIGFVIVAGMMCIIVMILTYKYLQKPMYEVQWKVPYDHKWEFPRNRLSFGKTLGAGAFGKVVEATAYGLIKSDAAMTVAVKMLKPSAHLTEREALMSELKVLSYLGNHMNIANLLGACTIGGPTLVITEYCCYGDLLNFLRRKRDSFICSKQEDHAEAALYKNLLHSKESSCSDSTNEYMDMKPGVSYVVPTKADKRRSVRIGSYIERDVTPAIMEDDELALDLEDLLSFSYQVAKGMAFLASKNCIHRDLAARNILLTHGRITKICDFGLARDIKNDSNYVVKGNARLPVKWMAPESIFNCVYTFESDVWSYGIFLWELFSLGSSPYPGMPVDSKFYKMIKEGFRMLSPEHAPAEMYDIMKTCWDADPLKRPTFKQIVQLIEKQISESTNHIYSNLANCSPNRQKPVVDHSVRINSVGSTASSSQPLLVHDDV
T1 sequence (P10721 544-976 V654A): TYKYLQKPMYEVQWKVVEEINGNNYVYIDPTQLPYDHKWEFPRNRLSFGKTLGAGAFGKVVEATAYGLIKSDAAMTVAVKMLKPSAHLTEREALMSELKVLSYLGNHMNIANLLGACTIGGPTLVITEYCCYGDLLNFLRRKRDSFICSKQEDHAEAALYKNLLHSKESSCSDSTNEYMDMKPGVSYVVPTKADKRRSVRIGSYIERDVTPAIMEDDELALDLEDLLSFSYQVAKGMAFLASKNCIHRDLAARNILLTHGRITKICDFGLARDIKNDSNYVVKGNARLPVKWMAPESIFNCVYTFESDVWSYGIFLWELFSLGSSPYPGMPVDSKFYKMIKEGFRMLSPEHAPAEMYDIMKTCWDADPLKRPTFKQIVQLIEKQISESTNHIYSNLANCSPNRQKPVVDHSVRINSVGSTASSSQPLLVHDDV

For `COCCOc1cc2[nH]nc(-c3cn(-c4ccc(C(=O)N5CC[C@@H]5C(C)(C)O)cc4)nn3)c2cc1F`, the values for the IC50 in assay [1] and in assay [2] were 5.1 nM and 220 nM, respectively.
Regarding `COCCOc1cc2[nH]nc(-c3cn(-c4ccc(C(=O)N5CC(N6CCOCC6)C5)cc4)nn3)c2cc1F`, the IC50 in assay [1] worked out at 1.1 nM; in assay [2], 610 nM.
